Test results taken from US20260092083A1, “VANCOMYCIN DERIVATIVES WITH SIDEROPHORE MODIFICATION AS NOVEL REPURPOSED ANTIBIOTICS TO COMBAT GRAM-NEGATIVE BACTERIAL INFECTION” (priority 2023, published 2026).
In brackets after ≈: the same amount, converted by molar mass.

Experiments:
Assay type in all cases: cell-based
[1] = system: K. pneumoniae ATCC 700603; experiment: Broth microdilution MIC, K. pneumoniae; settings: Klebsiella pneumoniae, ATCC700603, read-out: MIC (μg/mL) Gram-negative KPN
Description: (§1) The test compounds including vancomycin hydrochloride were supplied as a 6.4 mg/mL solution in 100% dimethyl sulfoxide (DMSO) aliquoted into individual wells of a 96-well plate (50 μL per well). […] Standardized inocula were added to the MIC test plates, which were incubated for the prescribed times at 35° C. The N. gonorrhoeae strain was incubated in an atmosphere containing 5% CO2.
(§2) The final optical density of each well at 600 nm was measured using a Tecan Spark plate reader. The compound concentration versus OD600 data were then curve fit using custom software. An MIC value was defined as the lowest compound concentration that led to an OD600 value≤0.15 for the E. coli, K. pneumoniae, P. aeruginosa, A. baumannii, or S. aureus strains. For the N. gonorrhoeae strain, an OD600 value≤0.19 was used as a cutoff to define an MIC value; this higher cut-off value was required because the N. gonorrhoeae MIC plates were covered with plastic seals that increased the background OD600 value.
(§3) JMI Laboratories followed current CLSI quality assurance practices when performing the susceptibility tests. MIC values were validated by concurrently testing the CLSI-recommended ATCC QC reference strains S. aureus ATCC 29213 and K. pneumoniae ATCC 700603. The inoculum density during susceptibility testing was monitored by bacterial colony counts. Where applicable, QC ranges for tested reference strains were those ranges approved or published by CLSI for testing in CAMHB. […] Importantly, the CLSI reference method for testing N. gonorrhoeae is the agar dilution MIC method, which was not used here. Thus, CLSI MIC QC ranges for N. gonorrhoeae could not be applied to the antimicrobials studied here.
(§4) Abbreviations: EC, E. coli (wild-type) BW25113; EC efflux^−, E. coli (tolC) JW5503-1; KPN, K. pneumoniae ATCC 700603; PSA, P. aeruginosa PAO1; PSA efflux^−, P. aeruginosa (multi-pump-gene mutant) PAM1626; ACB, A. baumannii JMI #1186154; GC, N. gonorrhoeae WHO-Z; SA, S. aureus ATCC 29213. Broth microdilution MIC values were measured in iron-depleted CAMHB for all strains except for GC, which was tested in fastidious broth.

[2] = system: S. aureus ATCC 29213; experiment: Broth microdilution MIC, S. aureus; settings: Staphylococcus aureus, ATCC29213, iron-depleted CAMHB, OD600 ≤0.15, read-out: MIC (μg/mL) Gram positive SA
Description: as §1, §2, §3, §4

[3] = system: A. baumannii JMI #1186154; experiment: Broth microdilution MIC, A. baumannii; settings: Acinetobacter baumannii, iron-depleted CAMHB, OD600 ≤0.15, read-out: MIC (μg/mL) Gram-negative ACB
Description: as §1, §2, §3, §4

[4] = system: E. coli (wild-type) BW25113; experiment: Broth microdilution MIC, E. coli wild-type; settings: Escherichia coli, iron-depleted CAMHB, OD600 ≤0.15, read-out: MIC (μg/mL) Gram-negative EC
Description: as §1, §2, §3, §4

[5] = system: P. aeruginosa PAO1; experiment: Broth microdilution MIC, P. aeruginosa; settings: Pseudomonas aeruginosa, iron-depleted CAMHB, OD600 ≤0.15, read-out: MIC (μg/mL) Gram-negative PSA
Description: as §1, §2, §3, §4

[6] = system: N. gonorrhoeae WHO-Z; experiment: Broth microdilution MIC, N. gonorrhoeae; settings: Neisseria gonorrhoeae, read-out: MIC (μg/mL) Gram-negative GC
Description: as §1, §2, §3, §4

[7] = system: E. coli (tolC) JW5503-1; experiment: Broth microdilution MIC, E. coli efflux-deficient (tolC); settings: Escherichia coli, read-out: MIC (μg/mL) Gram-negative EC Efflux
Description: as §1, §2, §3, §4

[8] = system: P. aeruginosa (multi-pump-gene mutant) PAM1626; experiment: Broth microdilution MIC, P. aeruginosa efflux-deficient; settings: Pseudomonas aeruginosa, read-out: MIC (μg/mL) Gram-negative PSA Efflux
Description: as §1, §2, §3, §4

SMILES	MIC [1] [µg/mL]	MIC [2] [µg/mL]	MIC [3] [µg/mL]	MIC [4] [µg/mL]	MIC [5] [µg/mL]	MIC [6] [µg/mL]	MIC [7] [µg/mL]	MIC [8] [µg/mL]
CNC(CC(C)C)C(=O)N[C@H]1C(=O)N[C@@H](CC(N)=O)C(=O)N[C@H]2C(=O)N[C@H]3C(=O)N[C@H](C(=O)N[C@@H](C(=O)NCCNC(=O)c4ccc(O)c(O)c4Cl)c4cc(O)cc(O)c4-c4cc3ccc4O)[C@H](O)c3ccc(c(Cl)c3)Oc3cc2cc(c3OC2O[C@H](CO)C(O)C(O)[C@H]2O[C@H]2CC(C)(N)[C@H](O)C(C)O2)Oc2ccc(cc2Cl)[C@H]1O (stereo in doubt) [Compound 3]	> 64	4 (≈ 2.41 µM)	2 (≈ 1.2 µM)	16 (≈ 9.63 µM)	> 64	> 64	> 64	> 64
CNC(CC(C)C)C(=O)N[C@H]1C(=O)N[C@@H](CC(N)=O)C(=O)N[C@H]2C(=O)N[C@H]3C(=O)N[C@H](C(=O)N[C@@H](C(=O)NCCOCCNC(=O)c4ccc(O)c(O)c4Cl)c4cc(O)cc(O)c4-c4cc3ccc4O)[C@H](O)c3ccc(c(Cl)c3)Oc3cc2cc(c3OC2O[C@H](CO)C(O)C(O)[C@H]2O[C@H]2CC(C)(N)[C@H](O)C(C)O2)Oc2ccc(cc2Cl)[C@H]1O (stereo in doubt) [Compound 10]	> 64	4 (≈ 2.34 µM)	2 (≈ 1.17 µM)	16 (≈ 9.38 µM)	> 64	> 64	> 64	> 64
CN[C@H](CC(C)C)C(=O)N[C@H]1C(=O)N[C@@H](CC(N)=O)C(=O)N[C@H]2C(=O)N[C@H]3C(=O)N[C@H](C(=O)N[C@H](C(=O)NCCOCCOCCNC(=O)c4ccc(O)c(O)c4Cl)c4cc(O)cc(O)c4-c4cc3ccc4O)[C@H](O)c3ccc(c(Cl)c3)Oc3cc2cc(c3O[C@@H]2O[C@H](CO)C(O)C(O)[C@H]2O[C@H]2CC(C)(N)[C@H](O)[C@H](C)O2)Oc2ccc(cc2Cl)[C@H]1O (stereo in doubt) [Compound 11]	> 64	4 (≈ 2.29 µM)	1 (≈ 0.571 µM)	64 (≈ 36.6 µM)	> 64	> 64	> 64	> 64
CNC(CC(C)C)C(=O)N[C@H]1C(=O)N[C@@H](CC(N)=O)C(=O)N[C@H]2C(=O)N[C@H]3C(=O)N[C@H](C(=O)N[C@@H](C(=O)NCc4cn(CCNC(=O)c5cccc(O)c5O)nn4)c4cc(O)cc(O)c4-c4cc3ccc4O)[C@H](O)c3ccc(c(Cl)c3)Oc3cc2cc(c3OC2O[C@H](CO)C(O)C(O)[C@H]2O[C@H]2CC(C)(N)[C@H](O)C(C)O2)Oc2ccc(cc2Cl)[C@H]1O (stereo in doubt) [Compound 14]	> 64	4 (≈ 2.34 µM)	16 (≈ 9.36 µM)	> 64	> 64	> 64	> 64	> 64
CN[C@H](CC(C)C)C(=O)N[C@H]1C(=O)N[C@@H](CC(N)=O)C(=O)N[C@H]2C(=O)N[C@H]3C(=O)N[C@H](C(=O)N[C@H](C(=O)NCCOCCOCCNS(=O)(=O)c4ccc(O)c(O)c4)c4cc(O)cc(O)c4-c4cc3ccc4O)[C@H](O)c3ccc(c(Cl)c3)Oc3cc2cc(c3O[C@@H]2O[C@H](CO)C(O)C(O)[C@H]2O[C@H]2CC(C)(N)[C@H](O)[C@H](C)O2)Oc2ccc(cc2Cl)[C@H]1O (stereo in doubt) [Compound 18]	> 64	4 (≈ 2.28 µM)	1 (≈ 0.571 µM)	64 (≈ 36.5 µM)	> 64	> 64	> 64	> 64
CNC(CC(C)C)C(=O)NC1C(=O)NC(CC(N)=O)C(=O)NC2C(=O)NC3C(=O)NC(C(=O)N[C@H](C(=O)NCCCNC(=O)c4cc(=O)c(O)c[nH]4)c4cc(O)cc(O)c4-c4cc3ccc4O)C(O)c3ccc(c(Cl)c3)Oc3cc2cc(c3OC2OC(CO)C(O)C(O)C2OC2CC(C)(N)C(O)C(C)O2)Oc2ccc(cc2Cl)C1O (stereo in doubt) [Compound 20]	> 64	32 (≈ 19.5 µM)	32 (≈ 19.5 µM)	32 (≈ 19.5 µM)	64 (≈ 39 µM)	> 64	64 (≈ 39 µM)	64 (≈ 39 µM)
CNC(CC(C)C)C(=O)NC1C(=O)NC(CC(N)=O)C(=O)NC2C(=O)NC3C(=O)NC(C(=O)N[C@H](C(=O)NCCCCNC(=O)c4cc(=O)c(O)c[nH]4)c4cc(O)cc(O)c4-c4cc3ccc4O)C(O)c3ccc(c(Cl)c3)Oc3cc2cc(c3OC2OC(CO)C(O)C(O)C2OC2CC(C)(N)C(O)C(C)O2)Oc2ccc(cc2Cl)C1O (stereo in doubt) [Compound 21]	> 64	32 (≈ 19.3 µM)	32 (≈ 19.3 µM)	32 (≈ 19.3 µM)	64 (≈ 38.6 µM)	> 64	64 (≈ 38.6 µM)	> 64
CNC(CC(C)C)C(=O)NC1C(=O)NC(CC(N)=O)C(=O)NC2C(=O)NC3C(=O)NC(C(=O)N[C@H](C(=O)NCCCN4C(=O)c5cc(O)c(O)cc5C4=O)c4cc(O)cc(O)c4-c4cc3ccc4O)C(O)c3ccc(c(Cl)c3)Oc3cc2cc(c3OC2OC(CO)C(O)C(O)C2OC2CC(C)(N)C(O)C(C)O2)Oc2ccc(cc2Cl)C1O (some centres unmarked) [Compound 1]	> 64	8 (≈ 4.8 µM)	32 (≈ 19.2 µM)	64 (≈ 38.4 µM)	> 64	> 64	64 (≈ 38.4 µM)	> 64
CN[C@H](CC(C)C)C(=O)N[C@H]1C(=O)N[C@@H](CC(N)=O)C(=O)N[C@H]2C(=O)N[C@H]3C(=O)N[C@H](C(=O)N[C@H](C(=O)NCCCCN4C(=O)c5cc(O)c(O)cc5C4=O)c4cc(O)cc(O)c4-c4cc3ccc4O)[C@H](O)c3ccc(c(Cl)c3)Oc3cc2cc(c3O[C@@H]2O[C@H](CO)C(O)C(O)[C@H]2O[C@H]2CC(C)(N)[C@H](O)[C@H](C)O2)Oc2ccc(cc2Cl)[C@H]1O (some centres unmarked) [Compound 2]	> 64	8 (≈ 4.76 µM)	32 (≈ 19 µM)	32 (≈ 19 µM)	> 64	> 64	32 (≈ 19 µM)	> 64
CN[C@H](CC(C)C)C(=O)N[C@H]1C(=O)N[C@@H](CC(N)=O)C(=O)N[C@H]2C(=O)N[C@H]3C(=O)N[C@H](C(=O)N[C@H](C(=O)NCCCNC(=O)c4ccc(O)c(O)c4Cl)c4cc(O)cc(O)c4-c4cc3ccc4O)[C@H](O)c3ccc(c(Cl)c3)Oc3cc2cc(c3O[C@@H]2O[C@H](CO)C(O)C(O)[C@H]2O[C@H]2CC(C)(N)[C@H](O)[C@H](C)O2)Oc2ccc(cc2Cl)[C@H]1O (some centres unmarked) [Compound 4]	> 64	2 (≈ 1.19 µM)	1 (≈ 0.597 µM)	8 (≈ 4.77 µM)	> 64	> 64	> 64	> 64
